Assays:
Assay in all cases: relative viability (nuclei count vs DMSO), 5 days (fraction); higher = more cells survive
Carboplatin + Tozasertib = compound: C1CC(C1)(C(=O)O)C(=O)O.[NH2-].[NH2-].[Pt+2] [Carboplatin] + Cc1cc(Nc2cc(N3CCN(C)CC3)nc(Sc3ccc(NC(=O)C4CC4)cc3)n2)n[nH]1 [Tozasertib] (partner 0.1 µM)
Procedure, shortened: (§1)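 Lung cancer cell lines, seeded in 1536-well plates, were treated the following day by pin tool with a single drug or with five library-drug doses (not always all listed) in √10 steps on top of a fixed anchor-drug dose. Cells were fixed and nuclei stained in one step after 5 days, and nuclei were counted. Relative viability is the nuclei count for treated wells divided by that for vehicle wells, reported as medians of duplicate plates.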

MLN4924 + Bortezomib = compound: NS(=O)(=O)OC[C@@H]1C[C@@H](n2ccc3c(N[C@H]4CCc5ccccc54)ncnc32)C[C@@H]1O [MLN4924] + CC(C)C[C@H](NC(=O)[C@H](Cc1ccccc1)NC(=O)c1cnccn1)B(O)O [Bortezomib] (partner 0.002 µM)
Procedure, shortened: as §1

MLN4924 + Pictilisib = compound: NS(=O)(=O)OC[C@@H]1C[C@@H](n2ccc3c(N[C@H]4CCc5ccccc54)ncnc32)C[C@@H]1O [MLN4924] + CS(=O)(=O)N1CCN(Cc2cc3nc(-c4cccc5[nH]ncc45)nc(N4CCOCC4)c3s2)CC1 [Pictilisib] (partner 1 µM)
Procedure, shortened: as §1

MLN4924 + Olaparib = compound: NS(=O)(=O)OC[C@@H]1C[C@@H](n2ccc3c(N[C@H]4CCc5ccccc54)ncnc32)C[C@@H]1O [MLN4924] + O=C(c1cc(Cc2n[nH]c(=O)c3ccccc23)ccc1F)N1CCN(C(=O)C2CC2)CC1 [Olaparib] (partner 8 µM)
Procedure, shortened: as §1

| Cell Line | relative viability (Carboplatin + Tozasertib; first compound 0.08 µM) | relative viability (Carboplatin + Tozasertib; first compound 0.253 µM) | relative viability (Carboplatin + Tozasertib; first compound 0.8 µM) | relative viability (Carboplatin + Tozasertib; first compound 2.53 µM) | relative viability (Carboplatin + Tozasertib; first compound 8 µM) | relative viability (MLN4924 + Bortezomib; first compound 0.04 µM) | relative viability (MLN4924 + Bortezomib; first compound 0.1265 µM) | relative viability (MLN4924 + Bortezomib; first compound 0.4 µM) | relative viability (MLN4924 + Bortezomib; first compound 1.265 µM) | relative viability (MLN4924 + Bortezomib; first compound 4 µM) | relative viability (MLN4924 + Pictilisib; first compound 0.04 µM) | relative viability (MLN4924 + Pictilisib; first compound 0.1265 µM) | relative viability (MLN4924 + Pictilisib; first compound 0.4 µM) | relative viability (MLN4924 + Pictilisib; first compound 1.265 µM) | relative viability (MLN4924 + Pictilisib; first compound 4 µM) | relative viability (MLN4924 + Olaparib; first compound 0.04 µM) | relative viability (MLN4924 + Olaparib; first compound 0.1265 µM) | relative viability (MLN4924 + Olaparib; first compound 0.4 µM) | relative viability (MLN4924 + Olaparib; first compound 1.265 µM) | relative viability (MLN4924 + Olaparib; first compound 4 µM) |
| --- | --- | --- | --- | --- | --- | --- | --- | --- | --- | --- | --- | --- | --- | --- | --- | --- | --- | --- | --- | --- |
| NCI-H441 | 0.746 | 0.687 | 0.508 | 0.454 | 0.469 | 0.876 | 0.29 | 0.236 | 0.145 | 0.191 | 0.471 | 0.285 | 0.251 | 0.136 | 0.139 | 0.567 | 0.426 | 0.296 | 0.143 | 0.169 |
| HCC-44 | 1.14 | 0.949 | 0.803 | 0.603 | 0.517 | 0.774 | 0.642 | 0.281 | 0.208 | 0.19 | 0.641 | 0.474 | 0.0983 | 0.0904 | 0.127 | 0.882 | 0.748 | 0.694 | 0.538 | 0.414 |
| NCI-H3122 | 0.371 | 0.336 | 0.381 | 0.329 | 0.411 | 1.07 | 0.752 | 0.35 | 0.208 | 0.146 | 0.591 | 0.376 | 0.222 | 0.153 | 0.136 | 0.535 | 0.235 | 0.251 | 0.112 | 0.0876 |
| NCI-H1650 | 0.473 | 0.342 | 0.427 | 0.348 | 0.373 | 0.226 | 0.194 | 0.172 | 0.182 | 0.177 | 0.373 | 0.245 | 0.182 | 0.124 | 0.183 | 0.609 | 0.616 | 0.34 | 0.175 | 0.166 |
| NCI-H1355 | 0.578 | 0.616 | 0.601 | 0.489 | 0.55 | 1.1 | 1.23 | 1.12 | 0.54 | 0.178 | 0.332 | 0.421 | 0.273 | 0.182 | 0.176 | 0.688 | 0.516 | 0.525 | 0.306 | 0.186 |
| NCI-H1734 | 0.289 | 0.295 | 0.31 | 0.242 | 0.26 | 0.817 | 0.602 | 0.251 | 0.134 | 0.118 | 0.568 | 0.743 | 0.29 | 0.13 | 0.154 | 0.652 | 0.547 | 0.128 | 0.108 | 0.107 |
| LXF-289 | 0.199 | 0.209 | 0.22 | 0.218 | 0.177 | 0.928 | 0.707 | 0.516 | 0.269 | 0.162 | 0.683 | 0.688 | 0.374 | 0.134 | 0.0975 | 0.919 | 0.429 | 0.381 | 0.132 | 0.0927 |
| RERF-LC-KJ | 0.553 | 0.471 | 0.483 | 0.406 | 0.386 | 0.874 | 0.828 | 0.244 | 0.24 | 0.28 | 0.532 | 0.315 | 0.154 | 0.139 | 0.192 | 0.624 | 0.344 | 0.221 | 0.206 | 0.218 |
| NCI-H2087 | 0.272 | 0.242 | 0.23 | 0.272 | 0.226 | 0.746 | 0.717 | 0.468 | 0.151 | 0.154 | 0.972 | 0.75 | 0.342 | 0.118 | 0.133 | 0.552 | 0.54 | 0.281 | 0.159 | 0.0852 |
| HCC-827 | 0.441 | 0.414 | 0.413 | 0.418 | 0.397 | 1.05 | 0.966 | 0.791 | 0.474 | 0.375 | 1.12 | 0.641 | 0.808 | 0.382 | 0.311 | 0.637 | 0.412 | 0.34 | 0.164 | 0.141 |
| NCI-H23 | 0.4 | 0.315 | 0.385 | 0.356 | 0.317 | 0.94 | 0.617 | 0.376 | 0.165 | 0.144 | 0.249 | 0.288 | 0.183 | 0.0988 | 0.141 | 0.343 | 0.245 | 0.239 | 0.143 | 0.131 |
| HARA | 0.146 | 0.122 | 0.09 | 0.11 | 0.11 | 0.918 | 0.516 | 0.218 | 0.101 | 0.0858 | 0.552 | 0.388 | 0.184 | 0.0759 | 0.0734 | 0.401 | 0.413 | 0.127 | 0.0734 | 0.107 |
| HCC-366 | 0.13 | 0.139 | 0.111 | 0.1 | 0.0814 | 1.04 | 1.01 | 0.911 | 0.293 | 0.0253 | 0.232 | 0.496 | 0.326 | 0.102 | 0.0407 | 0.341 | 0.352 | 0.272 | 0.0846 | 0.0262 |
| NCI-H838 | 0.296 | 0.28 | 0.254 | 0.273 | 0.279 | 0.807 | 0.456 | 0.315 | 0.0967 | 0.122 | 0.365 | 0.236 | 0.253 | 0.138 | 0.189 | 0.434 | 0.243 | 0.197 | 0.124 | 0.136 |
| NCI-H2023 | 0.419 | 0.394 | 0.402 | 0.262 | 0.158 | 0.927 | 0.796 | 0.113 | 0.0794 | 0.0811 | 0.315 | 0.145 | 0.101 | 0.0651 | 0.0705 | 0.397 | 0.221 | 0.12 | 0.0617 | 0.0657 |
| HCC-78 | 0.413 | 0.335 | 0.431 | 0.483 | 0.465 | 0.568 | 0.397 | 0.51 | 0.241 | 0.229 | 0.272 | 0.187 | 0.14 | 0.138 | 0.139 | 0.867 | 0.967 | 0.684 | 0.222 | 0.22 |

From the supplement of paper PMC10307832
